The record followed here is patent publication US20260008862A1, “Bispecific Anti-BCMA x Anti-CD3 Antibodies and Uses Thereof” (Regeneron Pharmaceuticals, Inc., priority 2018, published 2026).

Test [1] has as its system Jurkat/NFATLuc.3C7 cells + MOLP-8 cells. In words: Jurkat/NFATLuc reporter bioassay with MOLP-8 cells. It counts as cell-based. Particulars: highest RLU / lowest RLU. As for the experimental part: Activity of the anti-BCMA×anti-CD3 bispecific antibodies were assessed in a Jurkat/NFATLuc reporter bioassay utilizing several cell lines with varying levels of BCMA surface expression. The Jurkat cells were engineered to express an NFAT-luciferase reporter (Jurkat/NFATLuc.3C7), and 50,000 Jurkat reporter cells were combined with 50,000 BCMA positive (Daudi, MM1-S, NCI-H929, OPM-2, RPMI-8226, MOLP-8, or Raji) or BCMA negative (HEK293) cells in Thermo Nunclon delta 96 well white microwell plates (Thermo Scientific, Cat #136102) in 50 ul of assay media (RPMI media with 10% FBS and 1% P/S/G). Three-fold serial dilutions of the BCMA×CD3 bispecific antibodies (mAb25441 D or mAb25442D), or a bivalent anti-BCMA antibody (mAb21581) were immediately added in 50 μL of assay buffer. The plates were gently agitated and incubated in a 37° C., 5% CO2 incubator for 4-6 hours. NFAT-Luciferase activity was determined using Promega One-Glo (Cat #E6130) and a Perkin Elmer Envision plate reader. RLU were plotted in GraphPad Prism using a four-parameter logistic equation over a 12-point response curve to calculate EC50 values. […] The signal to noise (S:N) is determined by taking the ratio of the highest RLU on the curve to the lowest.

The target in test [2] is T1, surface BCMA on MM cell lines (Homo sapiens, UniProt Q02223).
T1 construct: human cell lines which express endogenous BCMA (e.g., NCI-H929, MOLP-8 or OMP-2); endogenous in cells; host or cells: multiple myeloma cell lines H929, Molp8, U266, MM1.S
T1 sequence (Q02223 1-184): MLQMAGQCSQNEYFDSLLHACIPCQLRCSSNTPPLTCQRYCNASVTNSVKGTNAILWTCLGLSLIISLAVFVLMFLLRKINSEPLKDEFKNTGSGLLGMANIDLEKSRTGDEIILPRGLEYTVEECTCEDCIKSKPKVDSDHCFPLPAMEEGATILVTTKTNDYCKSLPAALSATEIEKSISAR
The experiment in a line: FACS surface BCMA after overnight incubation, MM cell lines overall. In kind it is cell-based. Particulars: 66.7 or 667 nM. Here is the method: Flow cytometric analysis was utilized to determine the impact of overnight incubation of multiple myeloma cell lines with anti-BCMA antibodies on the level of surface BCMA. […] After 18 hours, wells were washed with cold FACS wash (PBS+1% filtered FBS) and resuspended in 667 nM of the same anti-BCMA antibody in cold stain buffer (Miltenyi 130-091-221) for 30 minutes on ice. After incubation, the cells were washed twice with cold FACS wash (PBS+1% filtered FBS) and bound antibody was detected by incubating with the appropriate anti-human secondary antibody (anti-hIgG or anti-HIS) on ice for an additional 30-45 minutes. After incubation, cells were washed, re-suspended in 200 μL cold PBS containing 1% filtered FBS and analyzed by flow cytometry on a BD FACS Canto II. Fold increase in staining was calculated by dividing the MFI of stained cells previously incubated overnight in BCMA abs or DAPT by the MFI of stained cells that were incubated overnight in media only.

Test [3] concerns MC38/BCMA tumors. In words: Syngenic MC38/BCMA tumor model, combination with anti-PD-1, second experiment (Example 21). In kind it is in vivo, mouse. To be noted: REGN5458 0.04 or 0.4 mg/kg plus anti-PD-1 4 mg/kg. From the text: Implantation and measurement of syngenic tumors: C57BL/6 mice that express human CD3deg in place of murine CD3deg (CD3-humanized mice) were subcutaneously implanted with 1×10^6 MC38 colon carcinoma cells that have been engineered to express full-length human BCMA (MC38/BCMA).
Calculation of syngenic tumor growth and inhibition: In order to determine tumor volume by external caliper, the greatest longitudinal diameter (length in mm) and the greatest transverse diameter (width in mm) were determined. Tumor volumes based on caliper measurements were calculated by the formula: Volume (mm^3)=(length×width^2)/2.

Test [4] concerns BCMA+ MOLP-8-luciferase tumors. The experiment in a line: MOLP-8-luciferase intravenous xenogenic tumor model, BLI (Example 14). To be noted: 4 mg/kg on days 0, 3 and 7. It counts as in vivo, mouse. Here is the method:
To determine the in vivo efficacy of anti-BCMA×anti-CD3 bispecific antibodies (Abs), a xenogenic tumor study was performed. On day −11, immunodeficient NOD.Cg-Prkdc^scidIl2rg^tm1Wji/SzJ (NSG) mice were intraperitoneally injected with 4×10^6 human peripheral blood mononuclear cells (PBMC) from a normal, healthy donor. On day 0, the mice were intravenously administered 2×10^6 BCMA^+ MOLP-8 human multiple myeloma tumor cells that were engineered to also express firefly luciferase (MOLP-8-luciferase cells). […] The mice were administered these Abs twice more on days 3 and 7, for a total of three doses. Tumor growth was assessed over 48 days by measuring tumor bioluminescence (BLI) in anesthetized animals. As a positive control, a group of mice (n=5) was given only MOLP-8-luciferase cells, but not PBMC or antibody.
Implantation and measurement of xenogenic tumors: On day −11, immunodeficient NOD.Cg-Prkdc^scidIl2rg^tm1Wji/SzJ (NSG) mice were intraperitoneally injected with 5×10^6 human PBMC from a normal, healthy donor. […] Tumor growth was assessed over 48 days by measuring tumor BLI in anesthetized animals. […]
Measurement of xenogenic tumor growth: BLI imaging was used to measure tumor burden. […] Image acquisition was carried out with the field of view at D, subject height of 1.5 cm, and medium binning level with automatic exposure time determined by the Living Image Software. […]

For the substance “REGN5459: anti-BCMA×anti-CD3 bispecific antibody: BCMA HCVR of mAb21581 (SEQ 66), CD3 HCVR of mAb7221G20 (SEQ 98), common LCVR SEQ 82”, in test [1], the “S:N” value is 31.

As for “REGN5458: anti-BCMA×anti-CD3 bispecific antibody: BCMA HCVR of mAb21581 (SEQ 66), CD3 HCVR of mAb7221G (SEQ 90), common LCVR SEQ 82”, the “surface BCMA after overnight incubation (in words)” value in test [2] is “increased levels of surface BCMA”. Besides, in test [3], the “anti-tumor efficacy of the combination (in words)” value is reported as “superior anti-tumor efficacy”. Also, the “tumor growth (in words)” value in test [4] is recorded as “delayed the growth”.
